US20260034112A1, “MULTI-CYCLIC IRAK1 AND IRAK4 INHIBITING COMPOUNDS AND USES THEREOF” (CHILDREN'S HOSPITAL MEDICAL CENTER, priority 2022, published 2026)
Where two headings read alike, the source gives them in different places.

Legend:
[1] = system: NF-kB activity upon TLR2 stimulation with PAM3CSK4 in THP1-Blue NF-kB SEAP reporter cells; assay: THP1-Blue NF-kB SEAP reporter assay, TLR2 stimulation with PAM3CSK4; format: cell-based, human; conditions: for LOG (PAM): log of PAM IC50
[2] = system: NF-kB activity upon IL-1β stimulation (IL-1R) in THP1 NF-kB reporter cells; assay: THP1 NF-kB reporter assay, IL-1β stimulation; format: cell-based, human; conditions: for LOG (IL1B): log of IL1B IC50
[3] = system: MDS/AML cell lines and patient-derived samples; assay: Clonogenic assay (colony formation in methylcellulose); format: cell-based, human; conditions: IRAK4KO versus IRAK1KO, MyD88KO or WT THP1 cells; 500 nM
IRAK4 = target: T1, IRAK4 (Homo sapiens, UniProt Q9NWZ3); assay: Reaction Biology Kinase Assay service, kinase inhibition (IC50); format: biochemical; conditions: Table 1; for LOG (IRAK4): log of IRAK4 IC50; for IC50: unit nM, read-out: Reaction Bio IRAK4 IC50
T1 construct: purchased Reaction Biology (contract assay service)
T1 sequence (Q9NWZ3 1-460): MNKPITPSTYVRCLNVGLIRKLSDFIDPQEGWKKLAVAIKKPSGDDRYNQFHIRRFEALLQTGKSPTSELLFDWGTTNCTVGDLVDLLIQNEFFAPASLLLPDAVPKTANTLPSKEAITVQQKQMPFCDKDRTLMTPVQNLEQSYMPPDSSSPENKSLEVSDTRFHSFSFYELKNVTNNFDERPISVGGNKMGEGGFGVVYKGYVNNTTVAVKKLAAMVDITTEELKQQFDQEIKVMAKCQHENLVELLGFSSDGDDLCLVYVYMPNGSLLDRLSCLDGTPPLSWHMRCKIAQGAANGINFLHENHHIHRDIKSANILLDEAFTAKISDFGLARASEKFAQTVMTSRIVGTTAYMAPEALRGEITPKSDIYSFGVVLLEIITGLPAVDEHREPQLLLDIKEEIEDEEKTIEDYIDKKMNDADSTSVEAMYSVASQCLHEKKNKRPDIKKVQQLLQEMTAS

IRAK1 = target: T2, IRAK1 (Homo sapiens, UniProt P51617); assay: as above; format: biochemical; conditions: Table 1; for LOG (IRAK1): log of IRAK1 IC50; for IC50: unit nM, read-out: Reaction Bio IRAK1 IC50
T2 construct: purchased Reaction Biology (contract assay service)

[4] = THP1 NF-kB reporter cells, result in words
[5] = Homo sapiens, THP-1, Table 1, unit nM, read-out: THP-1 NFkB PAM IC50
[6] = Homo sapiens, THP-1, Table 1, unit nM, read-out: THP-1 NFkB IL1B IC50

T2 sequence (P51617 whole entry): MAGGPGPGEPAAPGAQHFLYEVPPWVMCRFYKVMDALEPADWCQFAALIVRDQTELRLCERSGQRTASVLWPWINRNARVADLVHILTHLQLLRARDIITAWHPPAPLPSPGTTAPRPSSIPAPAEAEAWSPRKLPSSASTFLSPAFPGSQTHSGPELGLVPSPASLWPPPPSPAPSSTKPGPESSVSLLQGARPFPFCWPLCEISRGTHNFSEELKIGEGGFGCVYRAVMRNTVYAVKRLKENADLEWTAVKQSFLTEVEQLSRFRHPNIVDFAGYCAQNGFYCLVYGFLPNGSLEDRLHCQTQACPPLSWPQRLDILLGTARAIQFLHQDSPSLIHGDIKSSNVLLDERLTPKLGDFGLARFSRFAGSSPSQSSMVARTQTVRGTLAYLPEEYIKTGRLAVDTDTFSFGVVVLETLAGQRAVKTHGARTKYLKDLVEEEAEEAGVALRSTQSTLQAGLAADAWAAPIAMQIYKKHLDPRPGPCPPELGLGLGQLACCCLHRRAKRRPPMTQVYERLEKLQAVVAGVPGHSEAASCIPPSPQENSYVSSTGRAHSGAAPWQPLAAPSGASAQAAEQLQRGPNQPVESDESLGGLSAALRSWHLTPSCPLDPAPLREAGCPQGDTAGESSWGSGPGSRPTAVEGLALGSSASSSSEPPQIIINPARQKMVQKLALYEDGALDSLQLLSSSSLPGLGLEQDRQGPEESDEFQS

IC50 ([1]; THP1 NF-kB reporter cells, read-out: IC50 vs. Pam3CSK4 (TLR2-mediated NF-kB activation)) [nM]	IC50 ([2]; THP1 NF-kB reporter cells, read-out: IC50 vs. IL-1β (NF-kB activation)) [nM]	IC50 ([2]; Table 1, unit nM, read-out: THP-1 NFkB IL1B IC50) [nM]	IC50 [1, 5] [nM]	IC50 [2, 6] [nM]	LOG (IRAK4) (IRAK4)	IC50 (IRAK4) [nM]	LOG (IRAK1) (IRAK1)	IC50 (IRAK1) [nM]	Compound	Suppression of NF-kB signaling through TLR2 [1, 4]	LOG (PAM) ([1]; Table 1)	Span (extent of suppression of signaling through the IL-1R) ([2]; THP1 NF-kB reporter cells, IL-1β) [%]	Suppression of NF-kB signaling through the IL-1 receptor [2, 4]	LOG (IL1B) ([2]; Table 1)	Colony formation of knockout THP1 cells with STAT inhibitor [3]
150	81	81.2							CC(C)(O)c1cc2nn(CCS(C)(=O)=O)cc2cc1NC(=O)c1cccc(C(F)(F)F)n1 [BAY1834845]	fully suppress	2.18	59	do not fully suppress	1.91	
									CC(=O)c1cc2c(o1)C(=O)c1ccccc1C2=O [BB1608]						sensitive
			307	580					Cc1cc(-c2nc(C(=O)Nc3cc4oc(N5CCOCC5)nc4nc3N3CC[C@@H](O)C3)co2)ccn1 [CA-4948 (Emavusertib), Emavusertib]		2.49			2.76	
			242	209	0.13	1.35	1.72	52.8	COc1cc2ncc(-c3cncc(N[C@H]4CNCC[C@@H]4F)n3)n2nc1C1CC1 [Compound 1]		2.38			2.32	
			79.2	63.5	0.11	1.3	1.33	21.3	COc1cc2ncc(-c3ccnc(N[C@H]4CNCC[C@@H]4F)n3)n2nc1C1CC1 [Compound 2]		1.90			1.80	
			317	316	0.64	4.4	1.80	62.6	COc1cc2ncc(-c3ccnc(N[C@H]4CCCNC4)n3)n2nc1C1CC1 [Compound 3]		2.50			2.50	
			17.3	73.3	0.34	2.2	0.84	6.96	C[C@@](O)(c1cn2c(-c3ccnc(N[C@H]4CNCC[C@@H]4F)n3)cnc2cn1)C(F)(F)F [Compound 4]		1.24			1.87	
			10.5	25	−0.22	0.609	0.58	3.84	COc1cc2ncc(-c3ccnc(N[C@H]4CNCC[C@@H]4F)n3)n2cc1C(C)(C)O [Compound 5]		1.02			1.40	
